Laboratory results from patent publication US20230085307A1, “PYRIDAZINONE COMPOUND AND HERBICIDE” (NISSAN CHEMICAL CORPORATION, priority 2019, published 2023).

What was measured:
[1] = tested on: late watergrass; experiment: Test Example 1: herbicidal activity, application before weed generation under submerged conditions (Table 16, symbol A); assay type: in vivo, late watergrass (Echinochloa oryzicola); settings: 320 g/ha applied herbicide
Method in brief: (§1)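 Submerged Wagner pots (alluvial soil, 4 cm water) sown with weed seeds and planted with 2.5-leaf rice seedlings; emulsifiable concentrate diluted in water applied to water surface on sowing day. Held in greenhouse at 25-30 °C; injury scored 0-5 by herbicidal rate after three weeks.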

[2] = tested on: Japanese bulrush; experiment: Test Example 1: herbicidal activity, application before weed generation under submerged conditions (Table 16, symbol B); assay type: in vivo, Japanese bulrush (Schoenoplectus juncoides); settings: 320 g/ha applied herbicide
Method in brief: as §1

[3] = tested on: oval-leafed pondweed; experiment: Test Example 1: herbicidal activity, application before weed generation under submerged conditions (Table 16, symbol C); assay type: in vivo, oval-leafed pondweed (Monochoria vaginalis); settings: 320 g/ha applied herbicide
Method in brief: as §1

[4] = tested on: barnyard grass; experiment: Test Example 3: herbicidal effect by foliage application, Wagner pot (Table 18, symbol H); assay type: in vivo, barnyard grass (Echinochloa crus-galli); settings: amount of applied herbicide 320 g/ha
Method in brief: (§2)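 Plants were sown in alluvial soil held under 0.1–0.5 cm standing water and grown 14 days in a greenhouse at 25–30 °C. An emulsifiable formulation, water-diluted to the set dose, was then sprayed onto the foliage, and effects were scored three weeks later using previously defined criteria.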

[5] = tested on: Chinese sprangletop; experiment: Test Example 3: herbicidal effect by foliage application, Wagner pot (Table 18, symbol D); assay type: in vivo, chinese sprangletop (Leptochloa chinensis); settings: amount of applied herbicide 320 g/ha
Method in brief: as §2

[6] = tested on: rice flat sedge; experiment: Test Example 3: herbicidal effect by foliage application, Wagner pot (Table 18, symbol E); assay type: in vivo, rice flat sedge (Cyperus iria); settings: amount of applied herbicide 320 g/ha
Method in brief: as §2

[7] = tested on: southern crabgrass; experiment: Test Example 4: herbicidal effect by soil treatment (Table 19, symbol F); assay type: in vivo, southern crabgrass (Digitaria ciliaris); settings: amount of applied herbicide 320 g/ha
Method in brief: (§3)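 Scoring uses the grading scale of an earlier test, three weeks post-application. Treatment consists of spraying a diluted emulsion formulation across the surface of sterilized diluvial soil in which seeds are buried near 1.5 cm deep; boxes are kept in a greenhouse between 25° C. and 30° C.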

[8] = tested on: green foxtail; experiment: Test Example 4: herbicidal effect by soil treatment (Table 19, symbol G); assay type: in vivo, green foxtail (Setaria viridis); settings: amount of applied herbicide 320 g/ha
Method in brief: as §3

[9] = tested on: barnyard grass; experiment: Test Example 4: herbicidal effect by soil treatment (Table 19, symbol H); assay type: in vivo, barnyard grass (Echinochloa crus-galli); settings: amount of applied herbicide 320 g/ha
Method in brief: as §3

[10] = tested on: wild oat; experiment: Test Example 4: herbicidal effect by soil treatment (Table 19, symbol I); assay type: in vivo, wild oat (Avena fatua); settings: amount of applied herbicide 320 g/ha
Method in brief: as §3

[11] = tested on: blackgrass; experiment: Test Example 4: herbicidal effect by soil treatment (Table 19, symbol J); assay type: in vivo, blackgrass (Alopecurus myosuroides); settings: amount of applied herbicide 320 g/ha
Method in brief: as §3

[12] = tested on: Italian ryegrass; experiment: Test Example 4: herbicidal effect by soil treatment (Table 19, symbol K); assay type: in vivo, Italian ryegrass (Lolium multiflorum); settings: amount of applied herbicide 320 g/ha
Method in brief: as §3

[13] = tested on: windgrass; experiment: Test Example 4: herbicidal effect by soil treatment (Table 19, symbol L); assay type: in vivo, windgrass (Apera spica-venti); settings: amount of applied herbicide 320 g/ha
Method in brief: as §3

[14] = tested on: velvetleaf; experiment: Test Example 4: herbicidal effect by soil treatment (Table 19, symbol M); assay type: in vivo, velvetleaf (Abutilon theophrasti); settings: amount of applied herbicide 320 g/ha
Method in brief: as §3

[15] = tested on: redroot pigweed; experiment: Test Example 4: herbicidal effect by soil treatment (Table 19, symbol N); assay type: in vivo, redroot pigweed (Amaranthus retroflexus); settings: amount of applied herbicide 320 g/ha
Method in brief: as §3

[16] = tested on: lambsquarters; experiment: Test Example 4: herbicidal effect by soil treatment (Table 19, symbol O); assay type: in vivo, lambsquarters (Chenopodium album); settings: amount of applied herbicide 320 g/ha
Method in brief: as §3

[17] = tested on: chickweed; experiment: Test Example 4: herbicidal effect by soil treatment (Table 19, symbol P); assay type: in vivo, common chickweed (Stellaria media); settings: amount of applied herbicide 320 g/ha
Method in brief: as §3

[18] = tested on: false cleavers; experiment: Test Example 4: herbicidal effect by soil treatment (Table 19, symbol Q); assay type: in vivo, false cleavers (Galium spurium); settings: amount of applied herbicide 320 g/ha
Method in brief: as §3

[19] = tested on: persian speedwell; experiment: Test Example 4: herbicidal effect by soil treatment (Table 19, symbol R); assay type: in vivo, Persian speedwell (Veronica persica); settings: amount of applied herbicide 320 g/ha
Method in brief: as §3

[20] = tested on: southern crabgrass; experiment: Test Example 5: herbicidal effect by foliage application, plastic box (Table 20, symbol F); assay type: in vivo, southern crabgrass (Digitaria ciliaris); settings: foliage application, 320 g/ha, evaluated three weeks after application
Method in brief: (§4)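 Post-emergence foliar test in sterilized diluvial soil. Compound applied as water-diluted emulsion at a predetermined rate to 14-day-old plants; evaluation at three weeks.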

[21] = tested on: green foxtail; experiment: Test Example 5: herbicidal effect by foliage application, plastic box (Table 20, symbol G); assay type: in vivo, green foxtail (Setaria viridis); settings: foliage application, 320 g/ha, evaluated three weeks after application
Method in brief: as §4

[22] = tested on: barnyard grass; experiment: Test Example 5: herbicidal effect by foliage application, plastic box (Table 20, symbol H); assay type: in vivo, barnyard grass (Echinochloa crus-galli); settings: foliage application, 320 g/ha, evaluated three weeks after application
Method in brief: as §4

[23] = tested on: wild oat; experiment: Test Example 5: herbicidal effect by foliage application, plastic box (Table 20, symbol I); assay type: in vivo, wild oat (Avena fatua); settings: foliage application, 320 g/ha, evaluated three weeks after application
Method in brief: as §4

[24] = tested on: blackgrass; experiment: Test Example 5: herbicidal effect by foliage application, plastic box (Table 20, symbol J); assay type: in vivo, blackgrass (Alopecurus myosuroides); settings: foliage application, 320 g/ha, evaluated three weeks after application
Method in brief: as §4

[25] = tested on: Italian ryegrass; experiment: Test Example 5: herbicidal effect by foliage application, plastic box (Table 20, symbol K); assay type: in vivo, Italian ryegrass (Lolium multiflorum); settings: foliage application, 320 g/ha, evaluated three weeks after application
Method in brief: as §4

[26] = tested on: windgrass; experiment: Test Example 5: herbicidal effect by foliage application, plastic box (Table 20, symbol L); assay type: in vivo, windgrass (Apera spica-venti); settings: foliage application, 320 g/ha, evaluated three weeks after application
Method in brief: as §4

[27] = tested on: velvetleaf; experiment: Test Example 5: herbicidal effect by foliage application, plastic box (Table 20, symbol M); assay type: in vivo, velvetleaf (Abutilon theophrasti); settings: foliage application, 320 g/ha, evaluated three weeks after application
Method in brief: as §4

[28] = tested on: redroot pigweed; experiment: Test Example 5: herbicidal effect by foliage application, plastic box (Table 20, symbol N); assay type: in vivo, redroot pigweed (Amaranthus retroflexus); settings: foliage application, 320 g/ha, evaluated three weeks after application
Method in brief: as §4

[29] = tested on: lambsquarters; experiment: Test Example 5: herbicidal effect by foliage application, plastic box (Table 20, symbol O); assay type: in vivo, lambsquarters (Chenopodium album); settings: foliage application, 320 g/ha, evaluated three weeks after application
Method in brief: as §4

[30] = tested on: chickweed; experiment: Test Example 5: herbicidal effect by foliage application, plastic box (Table 20, symbol P); assay type: in vivo, common chickweed (Stellaria media); settings: foliage application, 320 g/ha, evaluated three weeks after application
Method in brief: as §4

[31] = tested on: false cleavers; experiment: Test Example 5: herbicidal effect by foliage application, plastic box (Table 20, symbol Q); assay type: in vivo, false cleavers (Galium spurium); settings: foliage application, 320 g/ha, evaluated three weeks after application
Method in brief: as §4

[32] = tested on: persian speedwell; experiment: Test Example 5: herbicidal effect by foliage application, plastic box (Table 20, symbol R); assay type: in vivo, Persian speedwell (Veronica persica); settings: foliage application, 320 g/ha, evaluated three weeks after application
Method in brief: as §4

COc1ccc2sc(-c3ccccc3OC)c(-c3c(O)c(C)nn(C)c3=O)c2c1 [2-165]
Herbicidal effect on A: late watergrass (grade 0-5) [1]: 3 (Herbicidal rate of 40% or more and less than 70%)
Herbicidal effect on B: Japanese bulrush (grade 0-5) [2]: 0 (Herbicidal rate of 5% or less (almost no effect))
Herbicidal effect on C: oval-leafed pondweed (grade 0-5) [3]: 1 (Herbicidal rate of 5% or more and less than 20%)
herbicidal effect on H: barnyard grass [4]: 5 (Herbicidal rate of 90% or more (almost completely withered))
herbicidal effect on D: Chinese sprangletop [5]: 3 (Herbicidal rate of 40% or more and less than 70%)
herbicidal effect on E: rice flat sedge [6]: 5 (Herbicidal rate of 90% or more (almost completely withered))
F: southern crabgrass, herbicidal effect rating [7]: 3 (Herbicidal rate of 40% or more and less than 70%)
G: green foxtail, herbicidal effect rating [8]: 4 (Herbicidal rate of 70% or more and less than 90%)
H: barnyard grass, herbicidal effect rating [9]: 3 (Herbicidal rate of 40% or more and less than 70%)
I: wild oat, herbicidal effect rating [10]: 2 (Herbicidal rate of 20% or more and less than 40%)
J: blackgrass, herbicidal effect rating [11]: 4 (Herbicidal rate of 70% or more and less than 90%)
K: Italian ryegrass, herbicidal effect rating [12]: 0 (Herbicidal rate of 5% or less (almost no effect))
L: windgrass, herbicidal effect rating [13]: 4 (Herbicidal rate of 70% or more and less than 90%)
M: velvetleaf, herbicidal effect rating [14]: 2 (Herbicidal rate of 20% or more and less than 40%)
N: redroot pigweed, herbicidal effect rating [15]: 4 (Herbicidal rate of 70% or more and less than 90%)
O: lambsquarters, herbicidal effect rating [16]: 4 (Herbicidal rate of 70% or more and less than 90%)
P: chickweed, herbicidal effect rating [17]: 4 (Herbicidal rate of 70% or more and less than 90%)
Q: false cleavers, herbicidal effect rating [18]: 3 (Herbicidal rate of 40% or more and less than 70%)
R: persian speedwell, herbicidal effect rating [19]: 5 (Herbicidal rate of 90% or more (almost completely withered))
herbicidal effect on F: southern crabgrass (criteria 0-5) [20]: 5 (Herbicidal rate of 90% or more (almost completely withered))
herbicidal effect on G: green foxtail (criteria 0-5) [21]: 5 (Herbicidal rate of 90% or more (almost completely withered))
herbicidal effect on H: barnyard grass (criteria 0-5) [22]: 5 (Herbicidal rate of 90% or more (almost completely withered))
herbicidal effect on I: wild oat (criteria 0-5) [23]: 5 (Herbicidal rate of 90% or more (almost completely withered))
herbicidal effect on J: blackgrass (criteria 0-5) [24]: 5 (Herbicidal rate of 90% or more (almost completely withered))
herbicidal effect on K: Italian ryegrass (criteria 0-5) [25]: 4 (Herbicidal rate of 70% or more and less than 90%)
herbicidal effect on L: windgrass (criteria 0-5) [26]: 5 (Herbicidal rate of 90% or more (almost completely withered))
herbicidal effect on M: velvetleaf (criteria 0-5) [27]: 5 (Herbicidal rate of 90% or more (almost completely withered))
herbicidal effect on N: redroot pigweed (criteria 0-5) [28]: 5 (Herbicidal rate of 90% or more (almost completely withered))
herbicidal effect on O: lambsquarters (criteria 0-5) [29]: 5 (Herbicidal rate of 90% or more (almost completely withered))
herbicidal effect on P: chickweed (criteria 0-5) [30]: 5 (Herbicidal rate of 90% or more (almost completely withered))
herbicidal effect on Q: false cleavers (criteria 0-5) [31]: 5 (Herbicidal rate of 90% or more (almost completely withered))
herbicidal effect on R: persian speedwell (criteria 0-5) [32]: 4 (Herbicidal rate of 70% or more and less than 90%)
